Source: publication PMC5843546 (Nature, 2018)

How the values were obtained:
DRD2 wild-type = DRD2 wild-type (Homo sapiens, UniProt P14416); test: biochemical
[1] = biological target: T1, DRD2-T4L(Sf9) I122^3.40A/L375^6.37A/L379^6.41A (Homo sapiens, UniProt P14416, I122A/L375A/L379A); test: biochemical
T1 sequence (P14416 with tags, fused parts or gaps I122A/L375A/L379A): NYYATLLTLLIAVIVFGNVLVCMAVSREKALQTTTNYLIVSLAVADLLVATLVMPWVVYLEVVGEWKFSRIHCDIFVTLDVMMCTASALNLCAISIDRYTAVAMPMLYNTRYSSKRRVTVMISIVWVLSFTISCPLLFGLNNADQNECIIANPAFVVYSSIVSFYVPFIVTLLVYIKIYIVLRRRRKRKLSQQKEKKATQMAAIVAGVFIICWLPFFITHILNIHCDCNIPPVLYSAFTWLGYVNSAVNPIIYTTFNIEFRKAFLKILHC

DRD2 W100^EL1A = DRD2 W100^EL1A (Homo sapiens, UniProt P14416, W100A); settings: DRD2 W100^EL1A vs wild-type
DRD2 F110^3.28A = DRD2 F110^3.28A (Homo sapiens, UniProt P14416, F110A); settings: DRD2 F110^3.28A vs wild-type

`O=c1[nH]c2cccc(N3CCN(Cc4cccc(-c5ccccc5)c4)CC3)c2o1` [Bifeprunox] showed a Ki (DRD2 wild-type; Ki) of 1.04 nM, a Ki (DRD2 wild-type; pKi) of 0.302 nM and a Ki ([1]; Ki) of 0.57 nM. For the same compound, the Ki ([1]; pKi) was 0.562 nM.
`CNc1cc(OC)c(C(=O)NC2CCN(Cc3ccccc3)C2C)cc1Cl` (stereo not drawn) [Nemonapride, nemonapride] was tested, and the “ΔpKd (mutant-WT)” value (DRD2 W100^EL1A) was −0.98 and the “ΔpKd (mutant-WT)” value (DRD2 F110^3.28A) was 0.08.
